Assay results taken from patent US20220257597A1, “Methods of Administering Elagolix” (AbbVie Inc., priority 2021, published 2022).
Like-named read-outs stand apart in the source and are kept apart here.

Key:
[1] = Drug interaction studies: change in pharmacokinetics of elagolix in the presence of co-administered drugs; assay type: in vivo, human; conditions: for changes in elagolix exposures when co-administered, in words: elagolix 300 mg twice daily, rosuvastatin 20 mg once daily, sertraline 25 mg once daily or fluconazole 200 mg single dose
[2] = Drug interactions: effects of ORIAHNN on other drugs; conditions: co-administration of ORIAHNN
[3] = Drug interaction studies: change in pharmacokinetics of co-administered drug in the presence of elagolix; assay type: in vivo, human; conditions: for changes in exposures when co-administered with elagolix, in words: elagolix 300 mg twice daily
Protocol: Drug interaction studies were performed with elagolix and other drugs likely to be co-administered and with drugs commonly used as probes for pharmacokinetic interactions. Tables 8 and 9 summarize the pharmacokinetic effects when elagolix was co-administered with these drugs.

[4] = Drug interactions: effects of ORILISSA on other drugs; conditions: co-administration of ORILISSA
CYP3A = assay: Substrate of / metabolism by CYP3A; assay type: in vitro ADME
[5] = Phase 1 open-label study: coadministration of combined oral contraceptive (EE+LNG) with elagolix sodium, pharmacokinetics, safety and tolerability; assay type: in vivo, human; conditions: for Ratio (90% CI) AUC, co-administration with elagolix vs medication alone / Ratio (90% CI) Cmax, co-administration with elagolix vs medication alone: ethinyl estradiol 20 mcg/levonorgestrel 0.1 mg single dose, elagolix 200 mg twice daily x 15 days, N 20; for AUC(0-t) / AUC(0-inf) / Cmax: female, human, in vivo, oral
Protocol: Objective: To evaluate the effect of elagolix on the pharmacokinetics, safety, and tolerability of a single dose of a combined oral contraceptive (COC) containing EE and LNG in healthy premenopausal female subjects. […] [table] […] Diagnosis and Main Criteria for Inclusion: Subjects were premenopausal females, and age was between 18 and 49 years, inclusive. Test Product, Dose/Strength/Concentration, and Mode of Administration: […] EE/LNG 0.02 mg/0.1 mg tablet; All study drugs were administered orally. Duration of Treatment: […] EE/LNG: 0.02 mg/0.1 mg on two separate occasions. Criteria for Evaluation: Pharmacokinetic: Cmax, Tmax, t1/2 and AUC. Safety: Vital signs, physical examinations, laboratory tests, and adverse events. […] The tabulation of the number of subjects with treatment-emergent adverse events also was provided with further breakdowns by severity rating and relationship to study drug.

[6] = digoxin 0.5 mg single dose, elagolix 200 mg twice daily x 10 days, N 11
[7] = COC 20 mcg EE/0.1 mg levonorgestrel, elagolix 200 mg twice daily
[8] = COC 20 mcg EE/0.1 mg levonorgestrel, elagolix 200 mg twice daily, listed as EE
[9] = Study Day 1: EE/LNG 0.02 mg/0.1 mg
[10] = Study Day 1: EE/LNG 0.02 mg/0.1 mg, read-out: AUCt, Central Value Reference
[11] = Study Day 18: EE/LNG 0.02 mg/0.1 mg + elagolix 200 mg, read-out: AUCinf, Central Value Test
[12] = Study Day 18: EE/LNG 0.02 mg/0.1 mg + elagolix 200 mg, read-out: AUCt, Central Value Test
[13] = following elagolix 200 mg BID for 14 days
[14] = ethinyl estradiol 35 mcg and triphasic norgestimate 0.18/0.215/0.25 mg once daily, elagolix 150 mg once daily, N 21
[15] = midazolam 2 mg single dose, elagolix 150 mg once daily x 13 days, N 11
[16] = midazolam 2 mg single dose, elagolix 300 mg twice daily x 11 days, N 20
[17] = rosuvastatin 20 mg once daily, elagolix 300 mg twice daily x 7 days, N 10

CO[C@H]1/C=C/O[C@@]2(C)Oc3c(C)c(O)c4c(O)c(c(/C=N/N5CCN(C)CC5)c(O)c4c3C2=O)NC(=O)/C(C)=C\C=C\[C@H](C)[C@H](O)[C@@H](C)[C@@H](O)[C@@H](C)[C@H](OC(C)=O)[C@@H]1C [Rifampin]
effect of concomitant use on plasma concentrations of elagolix, in words ([1]; concomitant use of rifampin): increased

C[C@H]1O[C@@H](O[C@H]2[C@@H](O)C[C@H](O[C@H]3[C@@H](O)C[C@H](O[C@H]4CC[C@@]5(C)[C@H](CC[C@@H]6[C@@H]5C[C@@H](O)[C@]5(C)[C@@H](C7=CC(=O)OC7)CC[C@]65O)C4)O[C@@H]3C)O[C@@H]2C)C[C@H](O)[C@@H]1O [digoxin]
Effect on Plasma Exposure of Concomitant Drug (direction of change in AUC) [2]: ↑ digoxin
Ratio (90% CI) AUC, co-administration with elagolix vs medication alone [3, 6]: 1.26
Ratio (90% CI) Cmax, co-administration with elagolix vs medication alone [3, 6]: 1.71
Effect on Plasma Exposure of Concomitant Drug (direction of change in AUC) [4]: ↑ digoxin

C[C@]12CC[C@@H]3c4ccc(O)cc4CC[C@H]3[C@@H]1CC[C@@H]2O [estradiol]
metabolism by CYP3A (CYP3A): metabolized partially by CYP3A

C#C[C@]1(O)CC[C@H]2[C@@H]3CCc4cc(O)ccc4[C@H]3CC[C@@]21C [ethinyl estradiol, 17α-Ethynylestra-1,3,5(10)-triene-3,17β-diol]
Effect on Plasma Exposure of Concomitant Drug (direction of change in AUC) [2]: ↑ethinyl
AUCinf ratio, co-administered in the presence of elagolix vs alone [5, 7]: 2.18
Cmax ratio, co-administered in the presence of elagolix vs alone [5, 7]: 1.36
increase in plasma EE concentration compared to COC alone ([5]; COC 20 mcg EE/0.1 mg levonorgestrel, elagolix 200 mg twice daily for 14 days): 2.2 fold
AUCinf ratio, co-administered in the presence of elagolix vs alone [5, 8]: about 2.18
Cmax ratio, co-administered in the presence of elagolix vs alone [5, 8]: about 1.36
AUCinf, Central Value Reference [5, 9]: 0.494 ng·h/mL
CCmax, Central Value Reference [5, 9]: 49.0 pg/mL
CCmax, Central Value Test ([5]; Study Day 18: EE/LNG 0.02 mg/0.1 mg + elagolix 200 mg): 66.4 pg/mL
Ratio (90% CI) AUC, co-administration with elagolix vs medication alone [5]: 2.18
Ratio (90% CI) Cmax, co-administration with elagolix vs medication alone [5]: 1.36
AUC(0-t) [5, 10]: 0.437 ng·h/mL
AUC(0-inf) [5, 11]: 1.08 ng·h/mL
AUC(0-t) [5, 12]: 0.941 ng·h/mL
increase in AUCinf [5, 13]: 118%
increase in Cmax [5, 13]: 36%
Ratio (90% CI) AUC, co-administration with elagolix vs medication alone [3, 14]: 1.30
Ratio (90% CI) Cmax, co-administration with elagolix vs medication alone [3, 14]: 1.15
Effect on Plasma Exposure of Concomitant Drug (direction of change in AUC) [4]: ↑ethinyl

OC(Cn1cncn1)(Cn1cncn1)c1ccc(F)cc1F [fluconazole]
changes in exposures when co-administered with elagolix, in words [3]: No clinically significant changes
changes in elagolix exposures when co-administered, in words [1]: No clinically significant changes

C#C[C@]1(O)CC[C@H]2[C@@H]3CCC4=CC(=O)CC[C@@H]4[C@H]3CC[C@@]21CC [levonorgestrel, 17α-Ethynyl-18-methylestr-4-en-17β-ol-3-one]
Effect on Plasma Exposure of Concomitant Drug (direction of change in AUC) [2]: ↓levonorgestrel
decrease in plasma concentrations of levonorgestrel ([5]; COC containing 0.1 mg levonorgestrel, elagolix 200 mg twice daily): 27%
Ratio (90% CI) AUC, co-administration with elagolix vs medication alone [5]: 0.73
Ratio (90% CI) Cmax, co-administration with elagolix vs medication alone [5]: 0.97
AUC(0-inf) ([5]; Study Day 1: EE/LNG 0.02 mg/0.1 mg, read-out: AUCinf, Central Value Reference): 42.1 ng·h/mL
AUC(0-t) [5, 10]: 31.1 ng·h/mL
Cmax ([5]; Study Day 1: EE/LNG 0.02 mg/0.1 mg, read-out: Cmax, Central Value Reference): 2.62 ng/mL
AUC(0-inf) [5, 11]: 30.5 ng·h/mL
AUC(0-t) [5, 12]: 25 ng·h/mL
Cmax ([5]; Study Day 18: EE/LNG 0.02 mg/0.1 mg + elagolix 200 mg, read-out: Cmax, Central Value Test): 2.54 ng/mL
decrease in AUCinf [5, 13]: 27%
decrease in Cmax [5, 13]: 3%
Effect on Plasma Exposure of Concomitant Drug (direction of change in AUC) [4]: ↓ levonor-

Cc1ncc2n1-c1ccc(Cl)cc1C(c1ccccc1F)=NC2 [midazolam]
Effect on Plasma Exposure of Concomitant Drug (direction of change in AUC) [2]: ↓ midazolam
Ratio (90% CI) AUC, co-administration with elagolix vs medication alone [3, 15]: 0.65
Ratio (90% CI) Cmax, co-administration with elagolix vs medication alone [3, 15]: 0.81
Ratio (90% CI) AUC, co-administration with elagolix vs medication alone [3, 16]: 0.46
Ratio (90% CI) Cmax, co-administration with elagolix vs medication alone [3, 16]: 0.56
Effect on Plasma Exposure of Concomitant Drug (direction of change in AUC) [4]: ↓ midazolam

C#C[C@]1(OC(C)=O)CC[C@H]2[C@@H]3CCC4=CC(=O)CC[C@@H]4[C@H]3CC[C@@]21C [norethindrone acetate]
metabolism by CYP3A (CYP3A): metabolized partially by CYP3A

CC(C)c1nc(N(C)S(C)(=O)=O)nc(-c2ccc(F)cc2)c1/C=C/[C@@H](O)C[C@@H](O)CC(=O)O [rosuvastatin]
Effect on Plasma Exposure of Concomitant Drug (direction of change in AUC) [2]: ↓ rosuvastatin
Ratio (90% CI) AUC, co-administration with elagolix vs medication alone [3, 17]: 0.60
Ratio (90% CI) Cmax, co-administration with elagolix vs medication alone [3, 17]: 0.99
Effect on Plasma Exposure of Concomitant Drug (direction of change in AUC) [4]: ↓ rosuvastatin
changes in elagolix exposures when co-administered, in words [1]: No clinically significant changes

CN[C@H]1CC[C@@H](c2ccc(Cl)c(Cl)c2)c2ccccc21 [sertraline]
changes in exposures when co-administered with elagolix, in words [3]: No clinically significant changes
changes in elagolix exposures when co-administered, in words [1]: No clinically significant changes
